From patent US9155694B2, “Stabilized composition comprising at least one adrenergic compound” (ALK AG, priority 2009, dated 2015)

How the values were obtained:
[1] = Further stability testing, thermal stress at 60° C. protected from light (Example 3); format: physicochemical
Experimental: (§1) The formulation solutions were prepared at a level of 1.0 mg/ml adrenaline (in the form of the tartrate), pH 3.4 containing 0.6% sodium chloride, with various molar ratios (0.25-0.59) of sodium metabisulfite added. The metabisulfite/adrenaline molar ratios tested were 0.25, 0.34, 0.42, 0.5 and 0.59, which correspond to sulfite/adrenaline ratios of 0.5, 0.68, 0.84, 1.0 and 1.18, respectively. For the ease of reference to the general description and claims of this specification, the said values correspond to a molar ratio of adrenaline to sulfite of 2.0, 1.47, 1.19, 1.0 and 0.85, respectively.
(§2) Each sample solution was split into two lots. For each sample solution, one lot was placed at the accelerated test temperature of 60° C., protected from light and the other lot placed in a photo-stability cabinet at 25° C. which provided 13400 lux visible light, 1.50 W·h/m^2 UV. Samples were pulled from both conditions at 0, 7, 14 and 28 days At each pull point, the appearance of the test solution was assessed, the pH measured and the adrenaline content measured together with impurities.

[2] = 1.0 mg/ml adrenaline (tartrate), pH 3.4, 0.6% sodium chloride; 25° C., 13400 lux visible light, 1.50 W·h/m^2 UV, up to 28 days
Experimental: as §1, §2

[3] = 60° C., weeks 0-4; FIGS. 8 and 9
Experimental: (§3) A 1.1 mg/ml solution of adrenaline (6.004×10^−3 M), in the form of the tartrate, pH 3.4 and containing 0.6% sodium chloride was used. A range of metabisulfite antioxidant concentrations, with and without admixture of 0.25% di-sodium edetate as chelating agent were tested. The metabisulfite/adrenaline molar ratios tested were 0.1, 0.2, 0.5, 1.0 and 1.5, which correspond to sulfite/adrenaline ratios of 0.2, 0.4, 1.0, 2.0 and 3.0, respectively. For the ease of reference to the general description and claims of this specification, the said values correspond to a molar ratio of adrenaline to sulfite of 5.0, 2.5, 1.0, 0.5 and 0.33, respectively.
The accelerated test temperature was 60° C., protected from light, and samples were pulled at 0, 7, 14, 21 and 28 days. At each pull point, the appearance of the test solution was assessed, the pH measured and the solution assayed for adrenaline content. The appearance of degradation products was noted as area %. […]
Each sample solution was split into two lots. […] Samples were pulled from both conditions at 0, 7, 14 and 28 days At each pull point, the appearance of the test solution was assessed, the pH measured and the adrenaline content measured together with impurities.

[4] = auto-oxidation rate increases with pH
[5] = 0.25% di-sodium edetate admixed; 60° C., up to 28 days; at the metabisulfite levels contemplated
Experimental: as §3
The accelerated test temperature was 60° C., protected from light, and samples were pulled at 0, 7, 14, 21 and 28 days. At each pull point, the appearance of the test solution was assessed, the pH measured and the solution assayed for adrenaline content. The appearance of degradation products was noted as area %.
[adr]^+ relates to samples containing 0.025% di-sodium edetate, whereas [adr] relates to samples containing no chelating agent.

## CNC[C@H](O)c1ccc(O)c(O)c1 [epinephrine, (R)-4-(1-hydroxy-2-(methylamino)ethyl)benzene-1,2-diol]
[1]; 1.0 mg/ml adrenaline (tartrate), pH 3.4, 0.6% sodium chloride, 60° C., up to 28 days
  best metabisulfite:adrenaline ratio on the basis of total impurities from heat stress: 0.42
[1]; considering both stresses (thermal 60° C. and photo-stress), loss of adrenaline, FIGS. 4 and 5
  first choice of metabisulfite content with respect to adrenaline: half molar
[2]
  best metabisulfite:adrenaline ratio on the basis of total impurities from photo-stress: 0.5
[3]
  optimum sulfite:adrenaline ratio: about 1.0
[4]
  pH for maximum stability of epinephrine in solution: about 3.4

## O=C([O-])CN(CCN(CC(=O)[O-])CC(=O)O)CC(=O)O.[Na+].[Na+] [di-sodium edetate]
[5]
  advantage of chelating agent for adrenaline solution stability: no advantage
